Values of other authors in patent US20080233144A1, “Use of the Mushroom Agaricus Blazei Murill for the Production of Medicaments Suitable for Treating Infections and Allergies” (priority 2004, published 2008).

Tested on: Streptococcus pneumoniae serotype 6B
Details: previous experiments

β-glucan
effect in the pneumococcus infection model when given via gavage: did not have any effect
